Experimental data as given in patent US20070191451A1, “USE OF BENZO-HETEROARYL SULFAMIDE DERIVATIVES AS NEUROPROTECTIVE AGENTS” (priority 2006, published 2007).

What was measured:
Rat Hippocampal Cultures = assay: Cell Titer Glo/Cell Viability in vitro assay, rat hippocampal cultures, insult with 150 μM H2O2; assay type: cell-based; settings: for Cell Titer Glo/Cell Viability / Cell Titer Glo/Cell Viability, Mean: insult with 150 μM H2O2; for Cell Titer Glo/Cell Viability, Mean: mean of 3 plates, n=9
Description: (§1) The assay was run according to the procedure listed within the insert of the kit purchased from Promega (see attachment at the end of the application).
(§2) Cell cultures were prepared as follows. Dissociated hippocampal and cortical cell cultures were established from embryonic day 18 rat fetuses. The fetuses were removed via cesarean section from pregnant dams (Harlan Sprague-Dawley) anesthetized with halothane according to the AVMA Panel on Euthanasia. Pups were decapitated and the brains were removed and placed in Hank's Balanced Salt solution (1×HBSS; Gibco, Rockville, Md.). The hippocampi and cortices were dissected out and pooled according to tissue-type. Tissue was trypsinized for 15 min (1 mg/ml trypsin-HBSS; Worthington, Lakewood, N.J.), rinsed with fresh HBSS, incubated in trypsin inhibitor (1 mg/ml; Sigma, St. Louis, Mo.) for 5 min, rinsed again with fresh HBSS and then triturated in 1 ml fresh HBSS with a fire-polished glass pipette. Dissociated cells were seeded at 10,000 cells/well onto poly-D-lysine coated 96-well plates (BD BioScience, Bedford, Mass.) containing 100 ul/well Eagle's Minimal Essential Media (MEM; Gibco) supplemented with 26 mM NaHCO3 (Sigma), 40 mM glucose (Sigma), 20 mM KCl (Sigma), 1 mM sodium pyruvate (Sigma), 10% (v/v) heat-inactivated fetal bovine serum (Hyclone, Logan, Utah), and 0.001% gentamicin sulfate (Sigma) (pH 7.4). Serum-free cultures were plated and maintained in Neurobasal medium+B27 supplement (Gibco). Cells were allowed to attach for 24h in a humidified 37° C. 5% CO2 incubator before experimental treatment.
(§3) Test compounds were prepared as follows: A 10 mM stock in DMSO of each compound was diluted 1:50 in DPBS rendering a final stock of 200 μM. […] Equal amounts of vehicle or diluted compound were added to each culture well.
(§4) A 30% stock solution of hydrogen peroxide (H2O2; Sigma) was diluted with DPBS 1:100 to yield a […] stock. Five microliters of vehicle or H2O2 stock solution was added to each 100 ul culture well to yield a final concentration of 150 uM.
(§5) Note that in the data listed below, each plate was run in triplicate for a total of n=9.

[1] = test system: Rat Cerebral Cortical Cultures; assay: Cell Titer Glo/Cell Viability in vitro assay, rat cerebral cortical cultures, insult with 150 μM H2O2; assay type: cell-based; settings: for Cell Titer Glo/Cell Viability, Mean: mean of 3 plates
Description: as §1, §2, §3, §4, §5

[2] = compound 0.1 μM, Plate 1 (run in triplicate)
[3] = compound 0.1 μM, Plate 2 (run in triplicate)
[4] = compound 0.1 μM, Plate 3 (run in triplicate)
[5] = compound 1 μM, Plate 1 (run in triplicate)
[6] = compound 1 μM, Plate 2 (run in triplicate)
[7] = compound 1 μM, Plate 3 (run in triplicate)
[8] = compound 10 μM, Plate 1 (run in triplicate)
[9] = compound 10 μM, Plate 2 (run in triplicate)
[10] = compound 10 μM, Plate 3 (run in triplicate)

NS(=O)(=O)NCc1csc2ccccc12 [Compound #1, N-(benzo[b]thien-3-ylmethyl)-sulfamide]
protecting neurons from death and/or damage from oxidative stress or oxidative injury (Rat Hippocampal Cultures; conclusion in words from the data of Tables 4 and 5, H2O2 insult): effective at protecting neurons from death and/or damage
Cell Titer Glo/Cell Viability (Rat Hippocampal Cultures; [2]): 28
Cell Titer Glo/Cell Viability (Rat Hippocampal Cultures; [3]): 16
Cell Titer Glo/Cell Viability (Rat Hippocampal Cultures; [4]): 17
Cell Titer Glo/Cell Viability, Mean (Rat Hippocampal Cultures; compound 0.1 μM): 20
Cell Titer Glo/Cell Viability (Rat Hippocampal Cultures; [5]): 30
Cell Titer Glo/Cell Viability (Rat Hippocampal Cultures; [6]): 12
Cell Titer Glo/Cell Viability (Rat Hippocampal Cultures; [7]): 13
Cell Titer Glo/Cell Viability, Mean (Rat Hippocampal Cultures; compound 1 μM): 18
Cell Titer Glo/Cell Viability (Rat Hippocampal Cultures; [8]): 41
Cell Titer Glo/Cell Viability (Rat Hippocampal Cultures; [9]): 46
Cell Titer Glo/Cell Viability (Rat Hippocampal Cultures; [10]): 45
Cell Titer Glo/Cell Viability, Mean (Rat Hippocampal Cultures; compound 10 μM, **p < 0.01 (Kruskal-Wallis, Dunn's post-hoc)): 44**

NS(=O)(=O)NCc1csc2ccc(F)cc12 [Compound #8, N-[(5-fluorobenzo[b]thien-3-yl)methyl]-sulfamide]
Cell Titer Glo/Cell Viability [1, 2]: 16
Cell Titer Glo/Cell Viability [1, 3]: 43
Cell Titer Glo/Cell Viability [1, 4]: 19
Cell Titer Glo/Cell Viability, Mean ([1]; compound 0.1 μM, n=9): 26
Cell Titer Glo/Cell Viability [1, 5]: 13
Cell Titer Glo/Cell Viability [1, 6]: 24
Cell Titer Glo/Cell Viability [1, 7]: 12
Cell Titer Glo/Cell Viability, Mean ([1]; compound 1 μM, n=9): 16
Cell Titer Glo/Cell Viability [1, 8]: 22
Cell Titer Glo/Cell Viability [1, 9]: 27
Cell Titer Glo/Cell Viability [1, 10]: 30
Cell Titer Glo/Cell Viability, Mean ([1]; compound 10 μM, n=9, *p < 0.05 (Kruskal-Wallis, Dunn's post-hoc)): 26*
